Tests used:
Type in all cases: cell-based
pluripotent culture [1] = experiment: HD-DoE experiment for E8 critical process parameter (CPP) media determination; conditions: 1:1 F12/IMDM hybrid media, FIG. 3
Text: To monitor the differentiation state of a pluripotent culture and track the primed state, naïve state and any early lineage commitment biases that may arise during the culture process, a network consisting of 54 genes was chosen (FIG. 1). Other genes monitored throughout this series of experiments include TERT and KI67. Maximal TERT expression is needed to sustain the pluripotent state in both naïve and primed cells while KI67, a proliferation marker, is expected to increase in the naïve state. Housekeeping genes measured within this QS chip design are used to normalize the individual experimental runs. This network of genes was then monitored using an HD-DoE methodology (Bukys et al. (2020) Iscience 23:101346) as further described in Example 2 to enable in silico modelling of the pluripotent state.
An initial HD-DoE modelling experiment was designed to determine if any of the components within the Essential 8 (E8) media were critical for pluripotent maintenance. The results of this experiment are depicted in FIG. 2. E8 media components include HEPES, bicarbonate, selenium, ascorbic acid, transferrin, insulin, FGF2 and TGF-β. HEPES, bicarbonate and selenium were not considered in this HD-DoE design, because they are additives that are not specific for the maintenance of the pluripotent state but are involved in enabling the overall growth of any cells in culture. In addition, these components are present in most generic media formulations, whereas the initial HD-DoE experiment herein utilized a 1:1 F12/IMDM hybrid media already containing HEPES, bicarbonate and selenium. In addition to the E8 components, human leukemia inhibitory factor (hLIF), AICAR (AMPK pathway agonist), CHIR 99021 (Wnt agonist/[…] antagonist), Go6983 (PKC pathway antagonist), PD0325901 (MEK pathway antagonist), and Y27632 (ROCK inhibitor) were evaluated within this design (FIG. 2). These components were selected based on previous experiments indicating the potential contribution of these components to maintenance of the pluripotent state.
Whereas the overall pluripotent state was driven by Go6983, the naïve state was favored by Y27632.

pluripotent culture [2] = experiment: HD-DoE experiment for pluripotent maintenance (optimization of naïve, primed and pluripotent genes); conditions: FIG. 6A
Text: A data-driven, High-Dimensional Design of Experiments (HD-DoE)-based perturbation of a pluripotent culture was used to assay several cellular signaling pathways known to function within the pluripotent state. The HD-DOE method was applied with the intent to find conditions for directly inducing the naïve state from the pluripotent stem cell state. This example utilizes a method previously described by Bukys et al. (2020) Iscience 23:101346, which employs computerized design geometries to simultaneously test multiple process inputs and provide for mathematical modeling of a deep effector/response space. The method allows for finding combinatorial signaling inputs that control a complex differentiation process and allows testing of multiple plausible critical process parameters impacting output responses, such as gene expression. […]
To develop a cell culture recipe for growing and maintaining PSCs in cell culture and for differentiation of stem cells to naïve state progenitors, the impact of agonists and antagonists of multiple signaling pathways (herein called effectors) on the expression of pre-selected genes was tested and modeled. The impact of each effector on gene expression level is defined by a parameter called factor contribution that is calculated for each effector during the modeling. […]

pluripotent cells = experiment: Adherent culture validation of TB5i media and comparison with TB7i; conditions: direct comparison between TB5i and TB7i, FIG. 7A-7B
Procedure: In an exemplary embodiment, a PSC culture, such as the CR01 iPSC line, is grown and maintained on vitronectin coated 6-well TC plates using a culture media of the present application, such as TB5i media. PSC cultures are generally passaged every 3-4 days and treated with agents for disrupting cell-to-cell adhesion, such as EDTA, or digestion enzymes, such as collagenase, accutase, trypsin, or […]. This can be accomplished by removing the media and washing each well of the TC plate with 2 ml of PBS. A 3-minute incubation in the presence of 5 mM EDTA can then be performed at 37 degrees C. Wells are then aspirated, and the cells are washed off from the plates and seeded in fresh media. Each well passaged is generally seeded onto 6 wells of a newly vitronectin-coated TC plate resulting in a 1 to 6 expansion of the iPSC line.

pluripotent colony = experiment: Protein additives assayed in the TB5i formulation, with immuno-histochemical validation; conditions: additive in the TB5i formulation, FIG. 8A
Text: The protein additives FGF2, TGF-β1 and insulin were next assayed as additives in the TB5i formulation (FIG. 8A).

Molecule: COc1ccc2c(c1)c(C1=C(c3c[nH]c4ccccc34)C(=O)NC1=O)cn2CCCN(C)C [Go6983]
- contribution to maintaining the pluripotent state (pluripotent culture [1]): potentially aid in pluripotent maintenance

Molecule: C[C@@H](N)[C@H]1CC[C@H](C(=O)Nc2ccncc2)CC1 [Y27632]
- contribution to maintaining the pluripotent state (pluripotent culture [1]): potentially aid in pluripotent maintenance
- criticality to the process (sequential optimization of all naïve, primed and pluripotent genes) (pluripotent culture [2]): neither the cAMP activator forskolin, nor the ROCK pathway inhibitor were critical
- benefit to the overall growth of pluripotent cells (pluripotent cells): neither forskolin, nor Y27632 were beneficial

Molecule: O=C1O[C@H]([C@@H](O)CO)C(O)=C1O [ascorbic acid]
- contribution to maintaining the pluripotent state (pluripotent culture [1]): beneficial in maintaining the pluripotent state

Molecule: FGF2
- growth rate of the culture (pluripotent colony): increased the growth rate

Molecule: TGF-β1
- morphology of the pluripotent colony edges (pluripotent colony): sustained normal morphology

Molecule: insulin
- effect on the culture (pluripotent colony): little, if any beneficial effect

Molecule: transferrin
- contribution to maintaining the pluripotent state (pluripotent culture [1]): beneficial in maintaining the pluripotent state
